# Data from PubChem BioAssay (NCI).
# Several values for one entry are separate records, joined by “and”; a condition that tells them apart may be missing. Identical values can stand only once.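 In this assay, cells in 96-well plates receive the compound at five concentrations for 48 hours. Endpoints are linearly interpolated between the surrounding concentrations. At the GI50, growth is halved. TGI is the concentration that stops growth completely.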
# Assays:
# Assay in all cases: NCI anticancer screen, dose series, 48 h
# [1] = test system: SN12C renal
# [2] = test system: PC-3 prostate
# [3] = test system: SF-295 CNS
# [4] = test system: KM12 colon
# [5] = test system: UO-31 renal
# [6] = test system: ACHN renal
# [7] = test system: CAKI-1 renal
# [8] = test system: MDA-MB-435
# [9] = test system: NCI-H522 lung
# [10] = test system: MCF7 breast
Structure (SMILES),GI50 [1],TGI [1],GI50 [2],TGI [2],GI50 [3],TGI [3],GI50 [4],TGI [4],GI50 [5],TGI [5],GI50 [6],TGI [6],GI50 [7],TGI [7],GI50 [8],TGI [8],GI50 [9],TGI [9],GI50 [10],TGI [10]
CCC(C)(CC(C)(C)C(=O)NCC(=O)NC(Cc1ccccc1)C(=O)NC(Cc1ccccc1)C(=O)NCC(=O)NC1CC(OC2CC(O)(C(=O)CO)Cc3c(O)c4c(c(O)c32)C(=O)c2c(OC)cccc2C4=O)OC(C)C1O)C(=O)NCC(C)O (stereo not given),81.2 µg/mL,> 150 µg/mL,> 150 µg/mL,> 150 µg/mL,75.9 µg/mL,> 150 µg/mL,66.3 µg/mL,> 150 µg/mL,> 150 µg/mL,> 150 µg/mL,73.9 µg/mL,> 150 µg/mL,90.9 µg/mL,> 150 µg/mL,> 150 µg/mL,> 150 µg/mL,45.5 µg/mL,> 150 µg/mL,22 µg/mL,> 150 µg/mL
CCN(CC)CCCC(C)Nc1ccnc2cc(Oc3ccccc3)ccc12 (stereo not given),9.08 µM and 19.6 µM,39.5 µM and > 100 µM,8.89 µM and 19.3 µM,35.5 µM and > 100 µM,2.69 µM and 4.09 µM,17.4 µM and 19 µM,8.52 µM and 10.6 µM,24.3 µM and > 100 µM,1.3 µM and 11.3 µM,3.09 µM and 27.7 µM,5.61 µM and 6.72 µM,26.2 µM and 29 µM,13.1 µM and 5.96 µM,37.9 µM and 36.2 µM,2.38 µM,6.21 µM and 7.27 µM,3.06 µM and 3.77 µM,13 µM and 17 µM,8.46 µM and 6.01 µM,26.5 µM and 19.4 µM
CC(C)N(Cc1ccccc1)c1c(S)ssc1=S,2.42 µM,19.7 µM,2.23 µM,9.44 µM,1.19 µM,11.7 µM,2.47 µM,21.7 µM,3.6 µM,70.6 µM,1.97 µM,12.4 µM,0.661 µM,> 100 µM,0.694 µM,18.5 µM,2.06 µM,> 100 µM,1.57 µM,5.02 µM
CC(=O)OCC1OC(n2cnc(C(N)=S)c2N)C(OC(C)=O)C1OC(C)=O (stereo not given),–,> 100 µM,–,> 100 µM,–,> 100 µM,–,> 100 µM,–,> 100 µM,–,> 100 µM,–,> 100 µM,–,> 100 µM,–,> 100 µM,–,> 100 µM
Cc1ccc(Nc2n[nH]c(=S)s2)cc1C,–,> 100 µM,–,> 100 µM,–,> 100 µM,–,> 100 µM,–,> 100 µM,–,> 100 µM,–,> 100 µM,–,> 100 µM,–,> 100 µM,–,> 100 µM
C#Cc1c(F)ccc2cc(O)cc(-c3ncc4c(N5CC6CCC(C5)N6)nc(OC[C@@]56CCCN5C[C@H](F)C6)nc4c3F)c12,14.8 µM,31 µM,14.8 µM,33.8 µM,15.9 µM,32 µM,5.03 µM,17.5 µM,> 34.8 µM,> 50.2 µM,> 39.4 µM,> 53.8 µM,17.5 µM,35.6 µM,13.6 µM,27.3 µM,14.5 µM,31.3 µM,8.48 µM,24 µM
COc1ccc2c(c1)c(=O)oc1cc(OC/C(C)=N\O)ccc12,> 100 µM,> 100 µM,> 100 µM,> 100 µM,37.9 µM,> 100 µM,> 100 µM,> 100 µM,33.3 µM,> 100 µM,29.9 µM,> 100 µM,> 100 µM,> 100 µM,> 100 µM,> 100 µM,44.5 µM,> 100 µM,> 100 µM,> 100 µM
Cc1cc2c(cc1C)N(C(=O)CCl)CC(=O)N2,3.44 µM,12 µM,4.48 µM,18.9 µM,13.6 µM,29.6 µM,8.2 µM,22.2 µM,1.74 µM,3.24 µM,1.82 µM,3.24 µM,1.84 µM,3.52 µM,2.67 µM,10.2 µM,0.568 µM,1.97 µM,2.45 µM,10.9 µM
C=C(C)C(=O)O[C@H]1CC(=C)[C@@H]2C[C@H](O)[C@](O)(CCl)[C@@H]2[C@H]2OC(=O)C(=C)[C@@H]21,4.09 µM,17.1 µM,3.03 µM,10.4 µM,12.3 µM,26.4 µM,1.8 µM,3.99 µM,2.73 µM,9.27 µM,1.82 µM,3.31 µM,1.94 µM,3.45 µM,1.99 µM,3.77 µM,1.91 µM,4 µM,1.6 µM,4.04 µM
COc1cc(OC(=O)c2ccccc2)cc2c1C(=O)C=CC2=O,–,45 µM,–,28.5 µM,–,32.1 µM,–,38.8 µM,–,22.8 µM,–,26.4 µM,–,37 µM,–,12 µM,–,12.4 µM,–,52 µM
